Experimental data as given in patent US20130131179A1, “IRON METABOLISM-IMPROVING AGENT” (Ajinomoto Co., Inc., priority 2006, published 2013).
Where a name gives a salt, the structure may show the parent alone.

Experiments:
[1] = Citric acid administration in a dialysis session in bilateral-kidney-extirpated rats; details: male, CD(SD), rat, plasma, intravenous
[2] = system: bilateral-kidney-extirpated rats; assay: as above
[3] = Citric acid administration in bilaterally nephrectomized rats; details: male, CD(SD), rat, plasma, intravenous, 0.25 mL/h of 4.5% (w/v) sodium citrate solution for 4 h
[4] = system: bilaterally nephrectomized rats; assay: as above; details: third group, 4.5% (w/v) sodium citrate solution by CVC 0.25 mL/h for 4 hours

## O=C(O)CC(O)(CC(=O)O)C(=O)O [citric acid, sodium citrate]
[1]
  concentration at 4 h: 265 µg/mL
[2]; third group versus second group, during 4 h dialysis
  difference of plasma iron concentrations relative to that of second group (saline): about 4 times
[2]; third group, 4.5% (w/v) sodium citrate solution by CVC 1.0 mL/h during 4 h dialysis with commercial dialysate
  difference of plasma iron concentrations between before and after administration: 81 µg/dL
[3]
  concentration at 4 h: 211 ± 132 µg/mL
[4]
  difference of plasma iron concentrations between before and after administration: 14 to 18 µg/dL
